# In PubChem BioAssay (NCI):
#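 Interpolation was linear, between the two tested concentrations surrounding the appropriate level; five concentrations were tested over 48 hours in 96-well plates. Definition used: TGI = concentration required for complete inhibition of growth.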
# Key:
# Test in all cases: NCI anticancer screen, dose series, 48 h
# TK-10 renal = test system: TK-10 renal
# MDA-N = test system: MDA-N
# SK-OV-3 ovarian = test system: SK-OV-3 ovarian
# UACC-257 melanoma = test system: UACC-257 melanoma
# KM12 colon = test system: KM12 colon
# OVCAR-4 ovarian = test system: OVCAR-4 ovarian
# HS 578T breast = test system: HS 578T breast
# SF-295 CNS = test system: SF-295 CNS
# SW-620 colon = test system: SW-620 colon
# HCT-15 colon = test system: HCT-15 colon
# CAKI-1 renal = test system: CAKI-1 renal
# A498 renal = test system: A498 renal
# LOX IMVI melanoma = test system: LOX IMVI melanoma
# SK-MEL-5 melanoma = test system: SK-MEL-5 melanoma
# COLO 205 colon = test system: COLO 205 colon
# HCT-116 colon = test system: HCT-116 colon
# K-562 leukemia = test system: K-562 leukemia
# NCI-H522 lung = test system: NCI-H522 lung
# UO-31 renal = test system: UO-31 renal
# HOP-92 NSCLC = test system: HOP-92 NSCLC
# EKVX NSCLC = test system: EKVX NSCLC
# HCC-2998 colon = test system: HCC-2998 colon
# UACC-62 melanoma = test system: UACC-62 melanoma
# 786-0 renal = test system: 786-0 renal
# SN12C renal = test system: SN12C renal
# DU-145 prostate = test system: DU-145 prostate
# NCI-H23 lung = test system: NCI-H23 lung
# HOP-62 NSCLC = test system: HOP-62 NSCLC
# BT-549 breast = test system: BT-549 breast
# SNB-75 CNS = test system: SNB-75 CNS
# MDA-MB-231 breast = test system: MDA-MB-231 breast
# ACHN renal = test system: ACHN renal
# RPMI-8226 leukemia = test system: RPMI-8226 leukemia
# SF-539 CNS = test system: SF-539 CNS
# SK-MEL-2 melanoma = test system: SK-MEL-2 melanoma
# OVCAR-3 ovarian = test system: OVCAR-3 ovarian
# HL-60(TB) leukemia = test system: HL-60(TB) leukemia
# RXF 393 renal = test system: RXF 393 renal
# PC-3 prostate = test system: PC-3 prostate
# CCRF-CEM leukemia = test system: CCRF-CEM leukemia
# A549 NSCLC = test system: A549 NSCLC
# NCI-H226 lung = test system: NCI-H226 lung
# T-47D breast = test system: T-47D breast
# OVCAR-8 ovarian = test system: OVCAR-8 ovarian
# NCI/ADR-RES ovarian = test system: NCI/ADR-RES ovarian
# SR leukemia = test system: SR leukemia
# SF-268 CNS = test system: SF-268 CNS
# SK-MEL-28 melanoma = test system: SK-MEL-28 melanoma
# MCF7 breast = test system: MCF7 breast
# MOLT-4 leukemia = test system: MOLT-4 leukemia
# MALME-3M melanoma = test system: MALME-3M melanoma
# MDA-MB-435 = test system: MDA-MB-435
# OVCAR-5 ovarian = test system: OVCAR-5 ovarian
# HT29 colon = test system: HT29 colon
# IGROV1 ovarian = test system: IGROV1 ovarian
# NCI-H460 lung = test system: NCI-H460 lung
# U251 CNS = test system: U251 CNS
# M14 melanoma = test system: M14 melanoma
# SNB-19 CNS = test system: SNB-19 CNS
structure (smiles),measurement,setting,value
CN(/N=C(\C(=O)O)c1ccccc1)C1=NCCN1,TGI,TK-10 renal,> 100 µM
same,TGI,MDA-N,> 100 µM
same,TGI,SK-OV-3 ovarian,> 100 µM
same,TGI,UACC-257 melanoma,> 100 µM
same,TGI,KM12 colon,> 100 µM
same,TGI,OVCAR-4 ovarian,> 100 µM
same,TGI,HS 578T breast,> 100 µM
same,TGI,SF-295 CNS,> 100 µM
same,TGI,SW-620 colon,> 100 µM
same,TGI,HCT-15 colon,> 100 µM
same,TGI,CAKI-1 renal,> 100 µM
same,TGI,A498 renal,> 100 µM
same,TGI,LOX IMVI melanoma,> 100 µM
same,TGI,SK-MEL-5 melanoma,> 100 µM
same,TGI,COLO 205 colon,> 100 µM
same,TGI,HCT-116 colon,> 100 µM
same,TGI,K-562 leukemia,> 100 µM
same,TGI,NCI-H522 lung,> 100 µM
same,TGI,UO-31 renal,> 100 µM
same,TGI,HOP-92 NSCLC,> 100 µM
same,TGI,EKVX NSCLC,> 100 µM
same,TGI,HCC-2998 colon,> 100 µM
same,TGI,UACC-62 melanoma,> 100 µM
same,TGI,786-0 renal,> 100 µM
same,TGI,SN12C renal,> 100 µM
same,TGI,DU-145 prostate,> 100 µM
same,TGI,NCI-H23 lung,> 100 µM
same,TGI,HOP-62 NSCLC,> 100 µM
same,TGI,BT-549 breast,> 100 µM
same,TGI,SNB-75 CNS,> 100 µM
same,TGI,MDA-MB-231 breast,> 100 µM
same,TGI,ACHN renal,> 100 µM
same,TGI,RPMI-8226 leukemia,> 100 µM
same,TGI,SF-539 CNS,> 100 µM
same,TGI,SK-MEL-2 melanoma,> 100 µM
same,TGI,OVCAR-3 ovarian,> 100 µM
same,TGI,HL-60(TB) leukemia,> 100 µM
same,TGI,RXF 393 renal,> 100 µM
same,TGI,PC-3 prostate,> 100 µM
same,TGI,CCRF-CEM leukemia,> 100 µM
same,TGI,A549 NSCLC,> 100 µM
same,TGI,NCI-H226 lung,> 100 µM
same,TGI,T-47D breast,> 100 µM
same,TGI,OVCAR-8 ovarian,> 100 µM
same,TGI,NCI/ADR-RES ovarian,> 100 µM
same,TGI,SR leukemia,> 100 µM
same,TGI,SF-268 CNS,> 100 µM
same,TGI,SK-MEL-28 melanoma,> 100 µM
same,TGI,MCF7 breast,> 100 µM
same,TGI,MOLT-4 leukemia,> 100 µM
same,TGI,MALME-3M melanoma,> 100 µM
same,TGI,MDA-MB-435,> 100 µM
same,TGI,OVCAR-5 ovarian,> 100 µM
same,TGI,HT29 colon,> 100 µM
same,TGI,IGROV1 ovarian,> 100 µM
same,TGI,NCI-H460 lung,> 100 µM
COc1cccc(N=Cc2cc(OC)c(OC)c(OC)c2)c1,TGI,TK-10 renal,> 100 µM
same,TGI,MDA-N,> 100 µM
same,TGI,SK-OV-3 ovarian,> 100 µM
same,TGI,UACC-257 melanoma,> 100 µM
same,TGI,U251 CNS,> 100 µM
same,TGI,KM12 colon,> 100 µM
same,TGI,OVCAR-4 ovarian,> 100 µM
same,TGI,HS 578T breast,> 100 µM
same,TGI,SF-295 CNS,> 100 µM
same,TGI,SW-620 colon,> 100 µM
same,TGI,HCT-15 colon,> 100 µM
same,TGI,CAKI-1 renal,> 100 µM
same,TGI,A498 renal,> 100 µM
same,TGI,LOX IMVI melanoma,> 100 µM
same,TGI,SK-MEL-5 melanoma,> 100 µM
same,TGI,COLO 205 colon,> 100 µM
same,TGI,HCT-116 colon,> 100 µM
same,TGI,M14 melanoma,> 100 µM
same,TGI,K-562 leukemia,> 100 µM
same,TGI,NCI-H522 lung,> 100 µM
same,TGI,UO-31 renal,> 100 µM
same,TGI,HOP-92 NSCLC,> 100 µM
same,TGI,EKVX NSCLC,> 100 µM
same,TGI,HCC-2998 colon,> 100 µM
same,TGI,786-0 renal,> 100 µM
same,TGI,SN12C renal,> 100 µM
same,TGI,DU-145 prostate,> 100 µM
same,TGI,NCI-H23 lung,> 100 µM
same,TGI,HOP-62 NSCLC,> 100 µM
same,TGI,BT-549 breast,> 100 µM
same,TGI,SNB-75 CNS,> 100 µM
same,TGI,MDA-MB-231 breast,> 100 µM
same,TGI,ACHN renal,> 100 µM
same,TGI,RPMI-8226 leukemia,> 100 µM
same,TGI,SF-539 CNS,> 100 µM
same,TGI,SK-MEL-2 melanoma,> 100 µM
same,TGI,OVCAR-3 ovarian,> 100 µM
same,TGI,HL-60(TB) leukemia,> 100 µM
same,TGI,RXF 393 renal,> 100 µM
same,TGI,PC-3 prostate,> 100 µM
same,TGI,CCRF-CEM leukemia,> 100 µM
same,TGI,A549 NSCLC,> 100 µM
same,TGI,NCI-H226 lung,> 100 µM
same,TGI,T-47D breast,> 100 µM
same,TGI,OVCAR-8 ovarian,> 100 µM
same,TGI,NCI/ADR-RES ovarian,> 100 µM
same,TGI,SR leukemia,> 100 µM
same,TGI,SF-268 CNS,> 100 µM
same,TGI,SK-MEL-28 melanoma,> 100 µM
same,TGI,MCF7 breast,> 100 µM
same,TGI,MOLT-4 leukemia,> 100 µM
same,TGI,MALME-3M melanoma,> 100 µM
same,TGI,MDA-MB-435,> 100 µM
same,TGI,OVCAR-5 ovarian,> 100 µM
same,TGI,HT29 colon,> 100 µM
same,TGI,IGROV1 ovarian,> 100 µM
same,TGI,NCI-H460 lung,> 100 µM
Cc1cc(Cc2cc(Cc3cc(C)cc(C(C)(C)C)c3O)c(C)cc2C)c(O)c(C(C)(C)C)c1,TGI,TK-10 renal,55.1 µM
same,TGI,MDA-N,35 µM
same,TGI,SK-OV-3 ovarian,35.6 µM
same,TGI,UACC-257 melanoma,34.8 µM
same,TGI,U251 CNS,> 100 µM
same,TGI,KM12 colon,34.7 µM
same,TGI,OVCAR-4 ovarian,25.4 µM
same,TGI,HS 578T breast,52 µM
same,TGI,SF-295 CNS,39.4 µM
same,TGI,SW-620 colon,40.8 µM
same,TGI,HCT-15 colon,42 µM
same,TGI,CAKI-1 renal,42.9 µM
same,TGI,A498 renal,30.6 µM
same,TGI,LOX IMVI melanoma,41.9 µM
same,TGI,SK-MEL-5 melanoma,30.2 µM
same,TGI,COLO 205 colon,36.7 µM
same,TGI,HCT-116 colon,30 µM
same,TGI,M14 melanoma,33.8 µM
same,TGI,K-562 leukemia,45 µM
same,TGI,NCI-H522 lung,34 µM
same,TGI,UO-31 renal,32 µM
same,TGI,HOP-92 NSCLC,29.2 µM
same,TGI,EKVX NSCLC,34.5 µM
same,TGI,HCC-2998 colon,27.1 µM
same,TGI,UACC-62 melanoma,28.1 µM
same,TGI,786-0 renal,31.6 µM
same,TGI,SN12C renal,31.7 µM
same,TGI,DU-145 prostate,27.6 µM
same,TGI,NCI-H23 lung,37.9 µM
same,TGI,HOP-62 NSCLC,36.2 µM
same,TGI,BT-549 breast,40.6 µM
same,TGI,SNB-75 CNS,23.9 µM
same,TGI,MDA-MB-231 breast,> 100 µM
same,TGI,ACHN renal,30.3 µM
same,TGI,RPMI-8226 leukemia,65 µM
same,TGI,SK-MEL-2 melanoma,> 100 µM
same,TGI,OVCAR-3 ovarian,32.9 µM
same,TGI,HL-60(TB) leukemia,46.9 µM
same,TGI,RXF 393 renal,24.8 µM
same,TGI,PC-3 prostate,> 100 µM
same,TGI,CCRF-CEM leukemia,48.3 µM
same,TGI,A549 NSCLC,30.8 µM
same,TGI,NCI-H226 lung,31.5 µM
same,TGI,T-47D breast,34.8 µM
same,TGI,SNB-19 CNS,31.9 µM
same,TGI,OVCAR-8 ovarian,75.4 µM
same,TGI,NCI/ADR-RES ovarian,42.4 µM
same,TGI,SR leukemia,70.6 µM
same,TGI,SF-268 CNS,35.4 µM
same,TGI,SK-MEL-28 melanoma,37 µM
same,TGI,MCF7 breast,27.2 µM
same,TGI,MOLT-4 leukemia,> 100 µM
same,TGI,MALME-3M melanoma,31.7 µM
same,TGI,MDA-MB-435,26.2 µM
same,TGI,OVCAR-5 ovarian,42.9 µM
same,TGI,HT29 colon,34.7 µM
same,TGI,IGROV1 ovarian,40.5 µM
